Assays:
Type in all cases: in vivo, mouse
[1] = system: wild type and RARβ2 null fetuses; experiment: RA-induced limb malformations in wild type and RARβ2 null fetuses; details: 80 mg/kg in utero at 11.5 dpc, fetuses at 18.5 dpc
Experimental: For generation of hindbrain malformations timed mating experiments were performed and all-trans RA (Sigma) (25 mg/kg body weight) was administered to the mother by oral gavage at 7.25 dpc. Embryos were collected at 9.0 dpc, yolk sacs were taken for genotyping and embryos were fixed in 4% paraformaldehyde and embedded in paraffin for in situ hybridization on sections. For each embryo, three sets of alternate sections were hybridized to Hoxb-1, Krox-20 and Hoxa-3 probes. These probes have been described previously (Gaunt et al., Development 104 suppl.:71-82 (1988); Wilkinson et al., Nature 337:461-464 (1989); Hunt et al., Nature 353:861-864 (1991)). […] A separate series of embryos was processed for whole-mount in situ hybridization with a digoxigenin-labelled Hoxb-1 riboprobe. Both in situ hybridization procedures were performed as described in Décimo et al. (“In situ Hybridization to Cellular RNA,” in Gene Probes: A Practical Approach, Vol. 2, Hames et al., eds., Oxford University Press, Oxford, England, in press). For induction of limb malformations, all-trans RA was administered at 11.5 dpc (80 mg/kg) and fetuses were collected at 18.5 dpc and analyzed for skeletal malformations. For investigating induction of RARβ2 promoter activity in RARβ2 mutants, 25 mg/kg RA was administered at days 10.5 and 11.5 pc, then embryos were collected and stained for LacZ activity after 4 hours. […]

RARα1 null homozygotes = experiment: RA-induced malformations in RARα1 null homozygotes; details: RA at days 8.5-9.0 p.c.
RARγ2−/− animals = experiment: RA-induced skeletal malformations in RARγ2−/− animals; details: RARγ2−/− animals versus control littermates, identical conditions
[2] = system: wild type, RARγ+/− and RARγ−/− fetuses; experiment: RA-induced skeletal malformations in wild type, RARγ+/− and RARγ−/− offspring
Experimental: For whole mount skeletal analysis, fetuses were collected at day 18.5 p.c. and stored at −20° C. Skeletons were prepared as previously described (Lufkin et al., Nature 359:835-841 (1992)). For histological analysis, fetuses were skinned and then fixed in Bouin's fluid. Paraffin sections, 7 μm thick, were stained with Groat's hematoxylin and Mallory's trichrome. Organs were fixed in 10% formalin, and histological sections, 5 μm thick, were stained with hematoxylin and eosin. RARγ^+/− heterozygote animals were mated overnight and the presence of a vaginal plug at noon the next day considered as day 0.5 p.c. At various times, pregnant females received a single dose of RA dissolved in sunflower seed oil at a final delivery of 100 mg RA per kg animal. […] To determine if any of these malformations could be mediated by RARγ, pregnant dams from heterozygote crosses were treated with RA at day 8.5 or 9.0 p.c., and we examined day 18.5 p.c. fetuses for skeletal malformations. […] Comparison of RA-induced skeletal malformations in wild type, RARγ^+/− and RARγ^−/− offspring. […] Skeletons were prepared, and malformations scored under a dissecting microscope. Where possible, fetuses from the same litter were compared.

[3] = system: wild type and RARβ2 null embryos; experiment: RA-induced hindbrain and forebrain alterations in wild type and RARβ2 null embryos (in situ hybridization); details: 25 mg/kg at 7.25 dpc
Experimental: For generation of hindbrain malformations timed mating experiments were performed and all-trans RA (Sigma) (25 mg/kg body weight) was administered to the mother by oral gavage at 7.25 dpc. Embryos were collected at 9.0 dpc, yolk sacs were taken for genotyping and embryos were fixed in 4% paraformaldehyde and embedded in paraffin for in situ hybridization on sections. For each embryo, three sets of alternate sections were hybridized to Hoxb-1, Krox-20 and Hoxa-3 probes. These probes have been described previously (Gaunt et al., Development 104 suppl.:71-82 (1988); Wilkinson et al., Nature 337:461-464 (1989); Hunt et al., Nature 353:861-864 (1991)). […] A separate series of embryos was processed for whole-mount in situ hybridization with a digoxigenin-labelled Hoxb-1 riboprobe. Both in situ hybridization procedures were performed as described in Décimo et al. (“In situ Hybridization to Cellular RNA,” in Gene Probes: A Practical Approach, Vol. 2, Hames et al., eds., Oxford University Press, Oxford, England, in press). For induction of limb malformations, all-trans RA was administered at 11.5 dpc (80 mg/kg) and fetuses were collected at 18.5 dpc and analyzed for skeletal malformations. For investigating induction of RARβ2 promoter activity in RARβ2 mutants, 25 mg/kg RA was administered at days 10.5 and 11.5 pc, then embryos were collected and stained for LacZ activity after 4 hours. For whole-mount skeletal analysis, fetuses were collected at 18.5 dpc by ceasarean section and skeletons were prepared as described (Lufkin et al., Nature 359:835-841 (1992)). Histological analysis was as in Lohnes et al. (Cell 73:643-658 (1993)) and lacZ staining as in Mendelsohn et al. (Development 113:723-734 (1991)).
RARβ2+/− intercrosses were set up, and pregnant females were given 25 mg/kg all-trans RA at 7.25 dpc, a dose which is known to produce rhombomeric alterations. […] Hoxb-1 expression was analyzed by whole-mount in situ hybridization.

[4] = RA 100 mg/kg single dose to dam at day 8.5 p.c., RARγ +/+ fetuses, day 18.5 p.c.
[5] = RA 100 mg/kg single dose to dam at day 8.5 p.c., RARγ +/− fetuses, day 18.5 p.c.
[6] = RA 100 mg/kg single dose to dam at day 8.5 p.c., RARγ −/− fetuses, day 18.5 p.c.
[7] = RA 100 mg/kg single dose to dam at day 9.0 p.c., +/−, fetuses day 18.5 p.c.
[8] = RA 100 mg/kg single dose to dam at day 9.0 p.c., RARγ +/− fetuses, day 18.5 p.c.
[9] = RA 100 mg/kg single dose to dam at day 9.0 p.c., RARγ −/− fetuses, day 18.5 p.c.

- nature or extent of the limb malformations, wild type versus RARβ2 null fetuses [1]: no apparent differences
- limb malformations (truncated long bones, missing digits) ([1]; wild type and RARβ2 null, compared to untreated): severely malformed limbs
- resistance to RA-induced malformations (lumbosacral truncations) (RARα1 null homozygotes): not observed
- Caudal truncations [2, 4]: 11 (100%) fetuses (%)
- Craniofacial malformations [2, 4]: 11 (100%) fetuses (%)
- Degenerate ribs [2, 4]: 10 (91%) fetuses (%)
- Homeotic transformations: 8 vertebrosternal ribs (T8 → T7) [2, 4]: 7 (64%) fetuses (%)
- Homeotic transformations: 14 or 15 ribs (L → T) [2, 4]: 6 (54%) fetuses (%)
- Caudal truncations [2, 5]: 13 (81%) fetuses (%)
- Craniofacial malformations [2, 5]: 16 (100%) fetuses (%)
- Degenerate ribs [2, 5]: 6 (38%) fetuses (%)
- Homeotic transformations: 8 vertebrosternal ribs (T8 → T7) [2, 5]: 8 (50%) fetuses (%)
- Homeotic transformations: 14 or 15 ribs (L → T) [2, 5]: 14 (87%) fetuses (%)
- Malformed lumbar/sacral vertebrae [2, 5]: 3 (19%) fetuses (%)
- Caudal truncations [2, 6]: 0 (0%) fetuses (%)
- Craniofacial malformations [2, 6]: 10 (100%) fetuses (%)
- Degenerate ribs [2, 6]: 0 (0%) fetuses (%)
- Homeotic transformations: 8 vertebrosternal ribs (T8 → T7) [2, 6]: 6 (50%) fetuses (%)
- Homeotic transformations: 14 or 15 ribs (L → T) [2, 6]: 7 (70%) fetuses (%)
- Homeotic transformations: Number of lumbar vertebrae: 5 [2, 6]: 1 (10%) fetuses (%)
- Homeotic transformations: Number of lumbar vertebrae: 6 [2, 6]: 9 (90%) fetuses (%)
- Homeotic transformations: Number of lumbar vertebrae: 7 [2, 6]: 0 (0%) fetuses (%)
- Malformed lumbar/sacral vertebrae [2, 6]: 0 (0%) fetuses (%)
- Caudal truncations [2, 7]: 13 (100%) fetuses (%)
- Craniofacial malformations [2, 7]: 13 (100%) fetuses (%)
- Degenerate ribs [2, 7]: 0 (0%) fetuses (%)
- Homeotic transformations: 8 vertebrosternal ribs (T8 → T7) [2, 7]: 7 (54%) fetuses (%)
- Homeotic transformations: 14 or 15 ribs (L → T) [2, 7]: 7 (54%) fetuses (%)
- Caudal truncations [2, 8]: 14 (58%) fetuses (%)
- Craniofacial malformations [2, 8]: 24 (100%) fetuses (%)
- Degenerate ribs [2, 8]: 0 (0%) fetuses (%)
- Homeotic transformations: 8 vertebrosternal ribs (T8 → T7) [2, 8]: 9 (38%) fetuses (%)
- Homeotic transformations: 14 or 15 ribs (L → T) [2, 8]: 8 (33%) fetuses (%)
- Malformed lumbar/sacral vertebrae [2, 8]: 10 (42%) fetuses (%)
- Caudal truncations [2, 9]: 0 (0%) fetuses (%)
- Craniofacial malformations [2, 9]: 18 (100%) fetuses (%)
- Degenerate ribs [2, 9]: 0 (0%) fetuses (%)
- Homeotic transformations: 8 vertebrosternal ribs (T8 → T7) [2, 9]: 11 (61%) fetuses (%)
- Homeotic transformations: 14 or 15 ribs (L → T) [2, 9]: 11 (61%) fetuses (%)
- Homeotic transformations: Number of lumbar vertebrae: 5 [2, 9]: 1 (7%) fetuses (%)
- Homeotic transformations: Number of lumbar vertebrae: 6 [2, 9]: 15 (83%) fetuses (%)
- Homeotic transformations: Number of lumbar vertebrae: 7 [2, 9]: 3 (16%) fetuses (%)
- Malformed lumbar/sacral vertebrae [2, 9]: 0 (0%) fetuses (%)
- lumbar to thoracic, sacral to lumbar and lumbar to sacral vertebral transformations ([2]; RA-treated RARγ null homozygotes): also occurred
- RA-induced truncations ([2]; RARγ heterozygotes, RA at day 8.5 p.c.): partially resistant
- spina bifida, truncation of the axial skeleton in the post-thoracic region, degenerate or fused ribs, disorganized vertebral centres or malformed neural arches ([2]; RARγ−/− embryos exposed to RA at day 8.5 p.c.): none
- truncations and associated defects ([2]; RARγ−/− littermates, RA at day 9.0 p.c.): never observed
- Hoxa-3 expression pattern ([3]; embryos collected at 9.0 dpc): No significant alteration
- forebrain truncation ([3]; observed at 9.0-9.5 dpc, wild-type and RARβ2 null embryos): Severe truncations of the forebrain
- Krox-20 transcripts (in situ hybridization) ([3]; RA-treated embryos): not detected in the putative R3
SMILES: CC1=C(/C=C/C(C)=C/C=C/C(C)=C/C(=O)O)C(C)(C)CCC1 [RA, retinoic acid]
- type and frequency of RA-induced malformations (RARγ2−/− animals): same type and frequency of RA-induced malformations as control littermates
- lumbo-sacral vertebral malformations, including fusion of the neural arches and disorganized vertebral centres ([2]; RARγ+/− animals, RA-treated): always exhibited lumbo-sacral vertebral malformations
- truncations and associated defects ([2]; WT embryos, RA at day 9.0 p.c. compared to day 8.5 p.c.): progressively more posterior truncations and associated defects
- spina bifida, truncation of the axial skeleton in the post-thoracic region, degenerate or fused ribs, disorganized vertebral centres or malformed neural arches ([2]; WT fetuses exposed to RA at day 8.5 p.c.): All WT fetuses exhibited these malformations
- Hoxb-1 expression (in situ hybridization) ([3]; wild type and RARβ2 null mutants): rostral expansion of the Hoxb-1 transcript domain

— patent publication US6486381B1, “Genetically engineered mice containing alterations in the genes encoding retinoic acid receptor proteins” (Institut National de la Sante et de la Recherche Medicale, priority 1993, dated 2002)
